Consider two substances from US20260007715A1, “WOUND CARE DEVICE” (priority 2019, published 2026).

“Also recorded” adds a separate entry of the source. Where no end group is shown, it is not given here.

One assay relates to Horse blood. Kind of assay: Blood coagulation on hydrogel samples with different peptides, whole horse blood test (Experiment 3). In kind it is cell-based. The following applies: citrated horse blood recalcified, 60 min at 37° C., washed three times with PBS, duplicate. How it is done: Hydrogels were functionalized with 4 different types of antimicrobial peptides (AMPs). The AMPs used were PGLa, LL-37, Temporin B and RRP9W4. As control hydrogels without any attached AMPs were used.
Fresh citrated Horse blood was purchased from Håtunalab AB, Sweden and used to show how if presence of AMPs can induce clotting. In an Eppendorf tube, 1 ml of blood with 0.1 ml of 250 Mm calcium chloride (to reverse the citrate anticoagulant) was added and mixed.
Samples were placed in 24 well plate and conditioned by adding 1 ml PBS to the hydrogels. After 15 minutes the samples were transferred to the Eppendorf tubes containing the blood. The tubes were then placed on shaker and incubated for 60 min at 37° C.
As blank controls, 1 ml of blood was added to an Eppendorf tube without any hydrogels and treated with the same conditions. […] Samples were run in duplicate.

In the next assay the test system is plasmatic coagulation. The following applies: literature, Int. J. Mol. Sci. 2019, 20, 5426; cited from earlier work.

“RRPRPRPRPWWWW-NH2 [RRP9W4, PRELP derived antimicrobial peptide]”: the “Observations (clot on hydrogel)” value with Horse blood was “large visible clot; also recorded: surprising clotting effect; also recorded: Big clot with firm attachment onto the surface”.
Turning to “LL-37: human cathelicidin derived LL-37 peptide (LLGDFFRKSKEKIGKEFKRIVQRIKDFLRNLVPRTES; Antibacterial peptide LL-37; UniProt P49913 134-170, looked up)”, in the assay with Horse blood, the “Observations (clot on hydrogel)” value was “no clot formation; also recorded: did not form a strong clot; also recorded: No visible clot was observed”. In the assay with plasmatic coagulation, the “effect on plasmatic coagulation” value was “not to affect plasmatic coagulation”.
